Measurements taken from ChEMBL document CHEMBL1201862, “PubChem BioAssay data set” (2004).
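Results reflect a 48-hour exposure of cells in 96-well plates to compound at five concentrations. GI50 is the concentration that inhibits growth by half.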 The source made the active and inactive calls. Rule as the data show it: active = GI50 up to about 1.1 µM and inactive = higher.

How the values were obtained:
Experiment in all cases: NCI-60 cell line screen, 48 h
MDA-N = system: MDA-N
NCI-H460 = system: NCI-H460
MOLT-4 = system: MOLT-4
CAKI-1 = system: CAKI-1
HCT-116 = system: HCT-116
NCI-H23 = system: NCI-H23
HOP-92 = system: HOP-92
SF-268 = system: SF-268
HT-29 = system: HT-29
SNB-19 = system: SNB-19
786-0 = system: 786-0
HOP-62 = system: HOP-62
SK-MEL-5 = system: SK-MEL-5
PC-3 = system: PC-3
MDA-MB-231 = system: MDA-MB-231
OVCAR-8 = system: OVCAR-8
RXF 393 = system: RXF 393
UO-31 = system: UO-31
A549 = system: A549
OVCAR-4 = system: OVCAR-4
COLO 205 = system: COLO 205
CCRF-CEM = system: CCRF-CEM
Malme-3M = system: Malme-3M
SF-539 = system: SF-539
T47D = system: T47D
SNB-75 = system: SNB-75
NCI-H522 = system: NCI-H522
IGROV-1 = system: IGROV-1
M14 = system: M14
U-251 = system: U-251
Hs-578T = system: Hs-578T
OVCAR-3 = system: OVCAR-3
BT-549 = system: BT-549
SN12C = system: SN12C
SW-620 = system: SW-620
SK-MEL-2 = system: SK-MEL-2
K562 = system: K562
SK-MEL-28 = system: SK-MEL-28
RPMI-8226 = system: RPMI-8226
TK-10 = system: TK-10
LOX IMVI = system: LOX IMVI
UACC-257 = system: UACC-257
MDA-MB-435 = system: MDA-MB-435
OVCAR-5 = system: OVCAR-5
NCI-H226 = system: NCI-H226
KM12 = system: KM12
SR = system: SR
SF-295 = system: SF-295
HL-60 = system: HL-60
NCI/ADR-RES = system: NCI/ADR-RES
SK-OV-3 = system: SK-OV-3
ACHN = system: ACHN
HCT-15 = system: HCT-15
DU-145 = system: DU-145
EKVX = system: EKVX
MCF7 = system: MCF7
A498 = system: A498
UACC-62 = system: UACC-62
HCC 2998 = system: HCC 2998

Measured: GI50

COc1ccc(-c2cc(-c3cc(F)c(Cl)cc3Cl)on2)cc1OC
5.42 µM: HCT-15
inactive: MDA-N 2.44 µM | NCI-H460 26.2 µM | MOLT-4 5.82 µM | CAKI-1 45 µM | HCT-116 29.2 µM | NCI-H23 29.9 µM | HOP-92 30.1 µM | SF-268 34 µM | HT-29 22.5 µM | SNB-19 > 100 µM | 786-0 63.8 µM | HOP-62 15.6 µM | SK-MEL-5 9.51 µM | PC-3 18.7 µM | MDA-MB-231 20.1 µM | OVCAR-8 72.3 µM | RXF 393 8.07 µM | UO-31 95.9 µM | A549 30.8 µM | OVCAR-4 10.1 µM | COLO 205 17.4 µM | CCRF-CEM 12.5 µM | Malme-3M 45.3 µM | SF-539 4.61 µM | T47D 15.6 µM | SNB-75 28.9 µM | NCI-H522 15.6 µM | IGROV-1 68.1 µM | M14 24.9 µM | U-251 25.9 µM | Hs-578T 67.1 µM | OVCAR-3 11.8 µM | BT-549 33 µM | SN12C 32.4 µM | SW-620 7.93 µM | SK-MEL-2 17.1 µM | K562 3.96 µM | SK-MEL-28 28.3 µM | RPMI-8226 34.7 µM | TK-10 49.5 µM | LOX IMVI 31.2 µM | UACC-257 22.4 µM | MDA-MB-435 1.8 µM | OVCAR-5 > 100 µM | NCI-H226 13.3 µM | KM12 14.3 µM | SR 1.16 µM | SF-295 13.2 µM | HL-60 4.48 µM | NCI/ADR-RES 11.4 µM | SK-OV-3 44.6 µM | ACHN 37.2 µM | DU-145 37.1 µM | EKVX 75.5 µM

O=C(N/N=C(/c1ccccc1)C(F)(F)F)c1ccncc1
active: RXF 393 0.923 µM
> 100 µM: HCT-15
inactive: MDA-N > 100 µM | NCI-H460 > 100 µM | MOLT-4 64.3 µM | CAKI-1 > 100 µM | HCT-116 > 100 µM | NCI-H23 > 100 µM | HOP-92 > 100 µM | HT-29 > 100 µM | SNB-19 > 100 µM | HOP-62 > 100 µM | SK-MEL-5 > 100 µM | PC-3 > 100 µM | OVCAR-8 > 100 µM | UO-31 > 100 µM | COLO 205 > 100 µM | CCRF-CEM 76 µM | Malme-3M > 100 µM | T47D > 100 µM | SNB-75 > 100 µM | NCI-H522 > 100 µM | IGROV-1 > 100 µM | M14 > 100 µM | U-251 > 100 µM | Hs-578T > 100 µM | OVCAR-3 > 100 µM | MCF7 > 100 µM | BT-549 > 100 µM | SN12C > 100 µM | SK-MEL-2 > 100 µM | K562 35.1 µM | SK-MEL-28 > 100 µM | A498 > 100 µM | RPMI-8226 > 100 µM | TK-10 > 100 µM | MDA-MB-435 > 100 µM | UACC-62 > 100 µM | OVCAR-5 > 100 µM | HCC 2998 > 100 µM | NCI-H226 > 100 µM | KM12 > 100 µM | SR > 100 µM | SF-295 > 100 µM | HL-60 > 100 µM | NCI/ADR-RES > 100 µM | SK-OV-3 > 100 µM | DU-145 > 100 µM

CCCOP(=O)(OCCC)OC(C(F)(F)F)C(F)(F)F
> 100 µM: HCT-15
inactive: MDA-N > 100 µM | NCI-H460 > 100 µM | MOLT-4 > 100 µM | HCT-116 > 100 µM | NCI-H23 > 100 µM | HT-29 > 100 µM | SNB-19 > 100 µM | HOP-62 > 100 µM | MDA-MB-231 > 100 µM | RXF 393 44.9 µM | UO-31 > 100 µM | CCRF-CEM > 100 µM | Malme-3M > 100 µM | SF-539 > 100 µM | T47D > 100 µM | SNB-75 > 100 µM | NCI-H522 > 100 µM | M14 > 100 µM | U-251 > 100 µM | Hs-578T > 100 µM | OVCAR-3 > 100 µM | MCF7 > 100 µM | BT-549 > 100 µM | SN12C > 100 µM | SK-MEL-2 > 100 µM | K562 > 100 µM | SK-MEL-28 > 100 µM | A498 > 100 µM | RPMI-8226 > 100 µM | TK-10 > 100 µM | LOX IMVI > 100 µM | UACC-257 > 100 µM | MDA-MB-435 > 100 µM | UACC-62 > 100 µM | OVCAR-5 > 100 µM | HCC 2998 > 100 µM | NCI-H226 > 100 µM | KM12 > 100 µM | SR > 100 µM | HL-60 > 100 µM | SK-OV-3 > 100 µM | ACHN > 100 µM | DU-145 > 100 µM | EKVX > 100 µM
